The values below come from PubChem BioAssay (NCI).

Among the test systems are OVCAR-3 ovarian; BT-549 breast; ACHN renal; DU-145 prostate; HS 578T breast; HL-60(TB) leukemia; SK-OV-3 ovarian; M14 melanoma; A549 NSCLC; UACC-62 melanoma.
Holding throughout (assay): inhibition of tumour cell growth, NCI panel, 48 h

Where “and” joins values, the source holds several entries; their conditions need not be identical. Equal values may be shown once.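 Assay format: 96-well plates, 48-hour exposure. Here, GI50 denotes the concentration required for 50% inhibition of growth. TGI: concentration producing complete growth inhibition.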

As for `COc1ccc(-c2ccc(-c3ccc(C(=N)N)cn3)o2)cc1Cl`, the GI50 was 2.24 µM in the experiment with OVCAR-3 ovarian; 1.75 µM in the experiment with BT-549 breast; 1.69 µM in the experiment on ACHN renal; 3.45 µM in the experiment on DU-145 prostate; 2.08 µM in the experiment on HS 578T breast; 2.29 µM in the experiment with HL-60(TB) leukemia. Besides, the figures for the GI50 with SK-OV-3 ovarian, with M14 melanoma and in the experiment with A549 NSCLC were 10.6 µM, 1.67 µM and 2.59 µM, respectively. The TGI in the experiment with OVCAR-3 ovarian worked out at 4.79 µM; in the experiment with BT-549 breast it was 3.21 µM; in the experiment with ACHN renal, 3.1 µM; in the experiment on DU-145 prostate, 11.3 µM; in the experiment on HS 578T breast it was 6.18 µM; in the experiment on HL-60(TB) leukemia, 5.36 µM. Also, the TGI in the experiment on SK-OV-3 ovarian came out at 22.8 µM; with M14 melanoma, 3.19 µM; in the experiment with A549 NSCLC it was 6.56 µM.
For the molecule `COc1ccc2c(c1)c(-c1ccc(-c3cn(C)c4ccc(OC)cc34)[nH]1)cn2C`, the GI50 with UACC-62 melanoma was 2.14 µM; in the experiment with BT-549 breast it was 2.09 µM; in the experiment on ACHN renal it was 1.91 µM; in the experiment with DU-145 prostate, 10.6 µM; in the experiment with HS 578T breast, 1.36 µM; with HL-60(TB) leukemia, 2.36 µM. The GI50 in the experiment on SK-OV-3 ovarian is 3.19 µM; in the experiment on M14 melanoma, 3.97 µM; with A549 NSCLC, 4.04 µM. The TGI worked out at 6.55 µM with UACC-62 melanoma; 5.3 µM with BT-549 breast; 3.54 µM with ACHN renal; 31.1 µM with DU-145 prostate; 4.24 µM with HS 578T breast; 5.69 µM in the experiment with HL-60(TB) leukemia. Also, the TGI in the experiment on SK-OV-3 ovarian was 20.9 µM; in the experiment with M14 melanoma, 20.3 µM; with A549 NSCLC, 17.6 µM.
With `N#C/C(=C\c1c(-c2ccccc2)[nH]c2ccccc12)C(=O)c1ccccc1`, the GI50 in the experiment on OVCAR-3 ovarian is 2.43 µM; in the experiment with UACC-62 melanoma it was 3.6 µM; with BT-549 breast, 3 µM; in the experiment on ACHN renal, 7.16 µM; in the experiment with DU-145 prostate, 5.22 µM; in the experiment with HS 578T breast it was 6.26 µM. For the same molecule, the figures for the GI50 in the experiment with SK-OV-3 ovarian, in the experiment with M14 melanoma and in the experiment on A549 NSCLC were 15.2 µM, 4.78 µM and 7.55 µM, respectively. Further, the TGI in the experiment with OVCAR-3 ovarian is 5.75 µM; with UACC-62 melanoma, more than 100 µM; in the experiment on BT-549 breast it was more than 100 µM; in the experiment on ACHN renal, more than 100 µM; in the experiment on DU-145 prostate, more than 100 µM; with HS 578T breast, 40.5 µM. The TGI in the experiment with SK-OV-3 ovarian, in the experiment with M14 melanoma and with A549 NSCLC was more than 100 µM throughout.
Regarding `O=C(CCSc1ccnc2c(C(F)(F)F)cccc12)N/N=C/c1cc(Cl)c(Cl)cc1Cl`, the GI50 in the experiment with OVCAR-3 ovarian is 20 µM; in the experiment on UACC-62 melanoma, 15.4 µM; in the experiment on BT-549 breast, 18 µM; in the experiment with ACHN renal, 19.7 µM; in the experiment on DU-145 prostate, 18.2 µM; in the experiment on HS 578T breast, 23.9 µM. Further, the GI50 in the experiment on HL-60(TB) leukemia is 32.2 µM; with SK-OV-3 ovarian it was 23.7 µM; in the experiment on A549 NSCLC, 24.8 µM. Moreover, the TGI turned out to be 44.5 µM with OVCAR-3 ovarian; 39.7 µM in the experiment on UACC-62 melanoma; 38.9 µM in the experiment on BT-549 breast; 35.5 µM in the experiment with ACHN renal; 40 µM in the experiment on DU-145 prostate; 49.8 µM with HS 578T breast. The TGI in the experiment on HL-60(TB) leukemia was determined as 58 µM; in the experiment with SK-OV-3 ovarian, 54.7 µM; with A549 NSCLC, 53.5 µM.
Take `CC(C)C[C@H](NC(=O)[C@H](Cc1cccc2ccccc12)NS(=O)(=O)c1cccc2cccnc12)B(O)O`: the GI50 in the experiment on OVCAR-3 ovarian was 0.000595 µM; in the experiment on UACC-62 melanoma, 0.00488 µM; with BT-549 breast, 0.000863 µM; in the experiment with HS 578T breast, 0.00137 µM; with HL-60(TB) leukemia, 0.000204 µM; in the experiment with A549 NSCLC, 0.0626 µM. Further, the TGI was 0.0149 µM and 0.0309 µM with OVCAR-3 ovarian; 0.0385 µM and 0.125 µM in the experiment on UACC-62 melanoma; 0.0395 µM in the experiment on BT-549 breast; more than 38.8 µM in the experiment on ACHN renal; 0.524 µM with DU-145 prostate; 0.017 µM in the experiment on HS 578T breast. Moreover, the figures for the TGI in the experiment with SK-OV-3 ovarian and in the experiment on A549 NSCLC were more than 33.8 µM and more than 28.9 µM, respectively.
For the molecule `Cc1cc(N(CCCNc2ccnc3cc(Cl)ccc23)Cc2ccc3c(c2)OCO3)nc(N2CCCCC2)n1`, the GI50 was 1.63 µM in the experiment on OVCAR-3 ovarian; 1.91 µM in the experiment on UACC-62 melanoma; 2.28 µM in the experiment with BT-549 breast; 2.32 µM in the experiment on ACHN renal; 1.78 µM in the experiment on HS 578T breast; 2.74 µM in the experiment with SK-OV-3 ovarian. Also, the GI50 in the experiment on M14 melanoma was 1.77 µM; in the experiment with A549 NSCLC, 2.62 µM. Besides, the TGI with OVCAR-3 ovarian turned out to be 3.19 µM; in the experiment with UACC-62 melanoma, 3.64 µM; with BT-549 breast, 5.95 µM; with ACHN renal, 4.84 µM; in the experiment with HS 578T breast it was 4.25 µM; in the experiment on SK-OV-3 ovarian it was 8.46 µM. Moreover, the TGI with M14 melanoma was 3.47 µM; with A549 NSCLC it was 7.37 µM.
Regarding `CCc1ccc2nccc(NCCCN(C)C)c2c1[N+](=O)[O-]`, the TGI in the experiment with OVCAR-3 ovarian, with UACC-62 melanoma, in the experiment with ACHN renal, with DU-145 prostate, with HS 578T breast and in the experiment with HL-60(TB) leukemia was more than 100 µM in each case. Further, the TGI in the experiment on SK-OV-3 ovarian is more than 100 µM; in the experiment with M14 melanoma, 67.4 µM; in the experiment on A549 NSCLC, more than 100 µM.
Take `Nc1ccc(C(OC(=O)c2cc3ccccc3c(Cc3c(O)c(C(=O)OC(c4ccc(N)cc4)(c4ccc(N)cc4)c4ccc(N)cc4)cc4ccccc34)c2O)(c2ccc(N)cc2)c2ccc(N)cc2)cc1`: the GI50 in the experiment on OVCAR-3 ovarian was 1.25 µM; with UACC-62 melanoma, 1.98 µM; in the experiment on ACHN renal, 2.49 µM; in the experiment with DU-145 prostate it was 2.18 µM; in the experiment with HS 578T breast, 0.201 µM; with HL-60(TB) leukemia it was 4.04 µM. Also, the GI50 with SK-OV-3 ovarian is 2.87 µM; with M14 melanoma, 0.993 µM; in the experiment on A549 NSCLC, 0.774 µM. Further, the TGI came out at 3.76 µM in the experiment with OVCAR-3 ovarian; 11.9 µM with UACC-62 melanoma; 54 µM with ACHN renal; 15 µM in the experiment on DU-145 prostate; 0.867 µM in the experiment on HS 578T breast; 23.3 µM in the experiment on HL-60(TB) leukemia. Moreover, the TGI came out at 14.5 µM in the experiment on SK-OV-3 ovarian, 19.1 µM with M14 melanoma and 21.7 µM in the experiment on A549 NSCLC.
For `C=C(CNC(=O)c1ccccc1)c1ccc(C(=O)Nc2ccccc2N)cc1`, the GI50 was 11.2 µM with OVCAR-3 ovarian; 1.75 µM with UACC-62 melanoma; 19.6 µM in the experiment with BT-549 breast; 3.86 µM with ACHN renal; 4.08 µM with DU-145 prostate; 20 µM with HS 578T breast. In addition, the GI50 in the experiment with SK-OV-3 ovarian is more than 100 µM; in the experiment with A549 NSCLC, 9.52 µM. Moreover, the TGI is more than 100 µM in the experiment on OVCAR-3 ovarian; 11.4 µM in the experiment on UACC-62 melanoma; more than 100 µM with BT-549 breast; more than 100 µM in the experiment on ACHN renal; more than 100 µM with DU-145 prostate; more than 100 µM in the experiment with HS 578T breast. Further, the TGI in the experiment on SK-OV-3 ovarian and in the experiment on A549 NSCLC was more than 100 µM each time.
